In US11655235B2, “Pyrrolidine and piperidine compounds” (YUHAN CORPORATION, priority 2019, dated 2023):

Assays:
Assay type in all cases: biochemical
Recombinant human FAP = target: T1, Recombinant human FAP (Homo sapiens, UniProt Q12884); assay: FAP inhibition, fluorogenic substrate Z-Gly-Pro-AMC; conditions: recombinant human FAP, substrate Z-Gly-Pro-AMC
T1 construct: purchased R&D systems
T1 sequence (Q12884 1-760): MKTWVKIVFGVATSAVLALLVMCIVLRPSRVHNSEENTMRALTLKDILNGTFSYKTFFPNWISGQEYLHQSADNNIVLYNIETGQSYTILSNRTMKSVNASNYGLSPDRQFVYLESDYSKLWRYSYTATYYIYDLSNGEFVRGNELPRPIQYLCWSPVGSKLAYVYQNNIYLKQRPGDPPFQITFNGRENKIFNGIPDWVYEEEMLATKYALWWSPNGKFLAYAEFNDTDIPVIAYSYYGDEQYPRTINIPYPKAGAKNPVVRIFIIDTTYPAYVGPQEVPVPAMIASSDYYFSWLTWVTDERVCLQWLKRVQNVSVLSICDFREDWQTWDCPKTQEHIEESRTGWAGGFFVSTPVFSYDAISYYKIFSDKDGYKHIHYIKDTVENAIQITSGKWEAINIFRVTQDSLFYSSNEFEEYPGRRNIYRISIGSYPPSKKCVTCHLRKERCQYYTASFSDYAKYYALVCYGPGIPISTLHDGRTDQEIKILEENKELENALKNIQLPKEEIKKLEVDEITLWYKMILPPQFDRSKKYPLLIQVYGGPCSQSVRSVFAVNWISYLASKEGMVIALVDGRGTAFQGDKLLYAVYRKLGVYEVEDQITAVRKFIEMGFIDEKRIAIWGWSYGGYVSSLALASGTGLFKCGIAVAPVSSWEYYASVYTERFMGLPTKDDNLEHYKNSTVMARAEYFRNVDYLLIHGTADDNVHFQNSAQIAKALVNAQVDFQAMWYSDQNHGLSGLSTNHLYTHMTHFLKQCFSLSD
Summary of the method: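 Eight-point compound dilutions (≤0.1% DMSO) were incubated at 25° C with 10 ng recombinant human FAP in Tris pH 7.5/1 M NaCl/BSA buffer and Z-Gly-Pro-AMC. Inhibition was taken as % drop in fluorescence rate (380/460 nm) against uninhibited control; IC50 came from a four-parameter logistic fit.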

recombinant human DPP7 = target: T2, recombinant human DPP7 (Homo sapiens, UniProt Q9UHL4); assay: DPP7 inhibition, fluorogenic substrate Lys-Pro-AMC; conditions: recombinant human DPP7
T2 construct: purchased R&D Systems
Summary of the method: (§1)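 Inhibitors are titrated in an 8-point series into the enzyme's assay buffer (DMSO no more than 0.5%). Substrate cleavage at 25 °C is followed by fluorescence, excitation 380 nm and emission 460 nm. IC50 values come from a four-variable logistic model.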

recombinant human DPP8 = target: T3, recombinant human DPP8 (Homo sapiens, UniProt Q6V1X1); assay: DPP8 inhibition, fluorogenic substrate Z-Ala-Pro-AMC; conditions: recombinant human DPP8
T3 construct: purchased PBS Bioscience
Summary of the method: as §1

recombinant human DPP9 = target: T4, recombinant human DPP9 (Homo sapiens, UniProt Q86TI2); assay: DPP9 inhibition, fluorogenic substrate H-Gly-Pro-AMC; conditions: recombinant human DPP9
T4 construct: purchased R&D Systems
Summary of the method: as §1

recombinant human PREP = target: T5, recombinant human PREP (Homo sapiens, UniProt P48147); assay: PREP inhibition, fluorogenic substrate Z-Gly-Pro-AMC; conditions: Inhibitory Activity (IC50, nM) PREP, recombinant human PREP
T5 construct: purchased R&D System
T5 sequence (P48147 1-710): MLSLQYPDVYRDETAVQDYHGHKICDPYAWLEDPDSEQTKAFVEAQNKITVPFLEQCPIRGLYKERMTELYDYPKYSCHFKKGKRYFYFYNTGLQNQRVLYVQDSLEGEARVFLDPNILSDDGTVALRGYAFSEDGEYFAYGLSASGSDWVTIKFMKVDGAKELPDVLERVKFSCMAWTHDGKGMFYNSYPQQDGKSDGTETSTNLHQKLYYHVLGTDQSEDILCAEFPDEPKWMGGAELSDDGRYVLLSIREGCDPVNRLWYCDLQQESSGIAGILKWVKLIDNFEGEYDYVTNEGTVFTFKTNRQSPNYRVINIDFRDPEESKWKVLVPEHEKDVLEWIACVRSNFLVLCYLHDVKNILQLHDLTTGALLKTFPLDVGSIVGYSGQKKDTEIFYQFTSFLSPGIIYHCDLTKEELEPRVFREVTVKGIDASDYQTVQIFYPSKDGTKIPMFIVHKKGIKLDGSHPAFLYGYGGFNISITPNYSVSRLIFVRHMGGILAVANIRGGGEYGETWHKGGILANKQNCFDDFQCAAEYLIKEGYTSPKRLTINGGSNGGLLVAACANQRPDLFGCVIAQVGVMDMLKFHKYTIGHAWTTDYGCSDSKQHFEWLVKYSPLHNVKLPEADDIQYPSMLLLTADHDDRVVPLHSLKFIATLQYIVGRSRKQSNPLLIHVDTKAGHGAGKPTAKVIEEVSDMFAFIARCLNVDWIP
Summary of the method: as §1

DPP4 = DPP4 (Homo sapiens, UniProt P27487); assay: DPP4 inhibition, fluorogenic substrate H-Gly-Pro-AMC; design: purchased R&D Systems; conditions: recombinant human DPP4
Sequence of DPP4 (P27487 whole entry): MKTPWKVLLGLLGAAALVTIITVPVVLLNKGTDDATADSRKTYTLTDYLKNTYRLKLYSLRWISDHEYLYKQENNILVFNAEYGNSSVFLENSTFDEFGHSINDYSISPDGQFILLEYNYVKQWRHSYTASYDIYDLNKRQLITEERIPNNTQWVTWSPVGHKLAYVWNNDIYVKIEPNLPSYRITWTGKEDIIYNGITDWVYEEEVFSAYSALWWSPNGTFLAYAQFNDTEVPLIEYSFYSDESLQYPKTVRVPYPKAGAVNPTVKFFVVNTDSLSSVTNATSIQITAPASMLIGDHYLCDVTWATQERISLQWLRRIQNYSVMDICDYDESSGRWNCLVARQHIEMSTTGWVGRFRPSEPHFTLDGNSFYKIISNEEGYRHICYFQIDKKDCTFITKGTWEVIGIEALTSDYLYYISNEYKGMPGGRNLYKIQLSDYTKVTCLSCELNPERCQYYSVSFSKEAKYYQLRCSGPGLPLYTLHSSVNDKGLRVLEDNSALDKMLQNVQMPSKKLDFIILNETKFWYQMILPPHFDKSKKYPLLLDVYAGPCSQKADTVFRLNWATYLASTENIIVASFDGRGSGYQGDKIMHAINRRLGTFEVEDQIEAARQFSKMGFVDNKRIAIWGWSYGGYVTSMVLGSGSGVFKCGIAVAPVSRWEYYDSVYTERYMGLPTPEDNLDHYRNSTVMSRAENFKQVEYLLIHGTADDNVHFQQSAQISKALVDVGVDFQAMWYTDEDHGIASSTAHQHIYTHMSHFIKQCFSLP

T3 sequence (Q6V1X1 whole entry): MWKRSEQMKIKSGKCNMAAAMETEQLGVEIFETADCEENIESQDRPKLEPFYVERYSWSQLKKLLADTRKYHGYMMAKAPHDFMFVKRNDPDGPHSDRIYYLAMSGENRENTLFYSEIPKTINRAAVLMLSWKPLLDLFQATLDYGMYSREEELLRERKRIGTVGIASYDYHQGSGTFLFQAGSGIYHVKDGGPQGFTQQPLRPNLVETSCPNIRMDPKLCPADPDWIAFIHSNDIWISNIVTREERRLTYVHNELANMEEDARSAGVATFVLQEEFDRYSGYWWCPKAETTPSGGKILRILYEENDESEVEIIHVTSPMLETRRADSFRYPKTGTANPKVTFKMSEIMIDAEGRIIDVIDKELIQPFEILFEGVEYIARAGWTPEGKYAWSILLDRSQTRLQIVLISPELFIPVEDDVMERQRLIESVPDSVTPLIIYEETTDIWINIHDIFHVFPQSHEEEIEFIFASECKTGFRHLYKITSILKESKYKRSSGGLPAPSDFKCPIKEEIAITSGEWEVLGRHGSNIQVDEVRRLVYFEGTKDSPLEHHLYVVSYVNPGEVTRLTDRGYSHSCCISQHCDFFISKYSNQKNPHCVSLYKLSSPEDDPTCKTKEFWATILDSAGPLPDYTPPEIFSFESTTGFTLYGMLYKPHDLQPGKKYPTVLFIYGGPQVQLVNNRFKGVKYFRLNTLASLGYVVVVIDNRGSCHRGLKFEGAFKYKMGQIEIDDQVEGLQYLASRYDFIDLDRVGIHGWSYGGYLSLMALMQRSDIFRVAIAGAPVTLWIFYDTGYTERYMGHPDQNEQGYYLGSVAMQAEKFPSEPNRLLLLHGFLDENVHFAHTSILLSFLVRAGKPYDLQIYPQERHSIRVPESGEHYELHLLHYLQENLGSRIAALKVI
T4 sequence (Q86TI2 whole entry): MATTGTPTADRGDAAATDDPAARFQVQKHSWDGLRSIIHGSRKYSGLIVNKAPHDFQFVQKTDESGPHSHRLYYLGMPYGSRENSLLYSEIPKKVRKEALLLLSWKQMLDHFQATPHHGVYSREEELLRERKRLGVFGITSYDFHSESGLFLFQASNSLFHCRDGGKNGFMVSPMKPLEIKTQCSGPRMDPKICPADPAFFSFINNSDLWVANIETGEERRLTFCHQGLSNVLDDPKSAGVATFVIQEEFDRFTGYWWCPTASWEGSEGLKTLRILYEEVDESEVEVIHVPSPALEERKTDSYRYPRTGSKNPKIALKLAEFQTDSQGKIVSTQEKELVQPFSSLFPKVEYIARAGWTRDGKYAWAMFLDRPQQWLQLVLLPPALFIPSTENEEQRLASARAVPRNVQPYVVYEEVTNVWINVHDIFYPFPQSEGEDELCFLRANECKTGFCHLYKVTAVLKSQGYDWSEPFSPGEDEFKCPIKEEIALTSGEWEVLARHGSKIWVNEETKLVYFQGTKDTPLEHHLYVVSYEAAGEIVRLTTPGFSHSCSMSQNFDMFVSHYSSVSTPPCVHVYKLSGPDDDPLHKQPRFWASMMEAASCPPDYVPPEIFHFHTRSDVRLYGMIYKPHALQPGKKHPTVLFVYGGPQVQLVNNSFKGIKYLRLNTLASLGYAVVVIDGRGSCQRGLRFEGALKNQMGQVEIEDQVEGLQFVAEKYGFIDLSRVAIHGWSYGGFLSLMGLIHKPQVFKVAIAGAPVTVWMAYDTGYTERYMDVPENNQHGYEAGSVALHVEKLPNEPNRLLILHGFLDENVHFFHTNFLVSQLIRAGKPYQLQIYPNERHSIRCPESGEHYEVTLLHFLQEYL

IC50 (Recombinant human FAP) [µM]	IC50 (recombinant human DPP7) [µM]	IC50 (recombinant human DPP8) [µM]	IC50 (recombinant human DPP9) [µM]	IC50 (recombinant human PREP) [nM]	IC50 (DPP4) [µM]	Structure (SMILES)
0.0017	1.05	> 10	5.77	134	9.15	CN(c1ccc2ncccc2c1)C1CCN(CC(=O)N2C[C@@H](F)C[C@H]2C#N)CC1 [Example 315, (2S,4S)-4-fluoro-1-[2-[4-[methyl(6-quinolyl)amino]-1-piperidyl]acetyl]pyrrolidine-2-carbonitrile]
0.0593	1.19	11.5	6.52	8500	7.39	N#C[C@@H]1C[C@H](F)CN1C(=O)CN1CCC(Nc2cccc3sccc23)CC1 [Example 336, (2S,4S)-1-(2-(4-(benzo[b]thiophen-4-ylamino)piperidin-1-yl)acetyl)-4-fluoropyrrolidine-2-carbonitrile]
0.0078	0.571	7.88	2.29	2540	8.18	N#C[C@@H]1C[C@H](F)CN1C(=O)CN1CCC(Nc2ccnc3ccc(F)cc23)CC1 [Example 337, (2S,4S)-4-fluoro-1-[2-[4-[(6-fluoro-4-quinolyl)amino]-1-piperidyl]acetyl]pyrrolidine-2-carbonitrile]
0.0065	0.809	8.33	2.94	1450	6.89	N#C[C@@H]1C[C@H](F)CN1C(=O)CN1CCC(Nc2ccnc3ccc(Cl)cc23)CC1 [Example 338, (2S,4S)-1-[2-[4-[(6-chloro-4-quinolyl)amino]-1-piperidyl]acetyl]-4-fluoro-pyrrolidine-2-carbonitrile]
0.0114	0.555	> 10	> 30	3590	8.79	N#C[C@@H]1C[C@H](F)CN1C(=O)CN1CCC(Nc2cncc3ccccc23)CC1 [Example 339, (2S,4S)-4-fluoro-1-[2-[4-(4-isoquinolylamino)-1-piperidyl]acetyl]pyrrolidine-2-carbonitrile]
0.0051	0.523	2.4	5.31	7850	6.5	N#C[C@@H]1C[C@H](F)CN1C(=O)CN1CCC(Nc2cccc3cnccc23)CC1 [Example 340, (2S,4S)-4-fluoro-1-[2-[4-(5-isoquinolylamino)-1-piperidyl]acetyl]pyrrolidine-2-carbonitrile]
0.014	0.316	39.6	5.33	6650	3.26	N#C[C@@H]1C[C@H](F)CN1C(=O)CN1CCC(Nc2cccc3ccncc23)CC1 [Example 342, (2S,4S)-4-fluoro-1-[2-[4-(8-isoquinolylamino)-1-piperidyl]acetyl]pyrrolidine-2-carbonitrile]
0.0027	0.339	5.96	3.26	637	2.35	N#C[C@@H]1C[C@H](F)CN1C(=O)CN1CCC(Nc2ccnc3c(C(F)(F)F)cccc23)CC1 [Example 346, (2S,4S)-4-fluoro-1-[2-[4-[[8-(trifluoromethyl)-4-quinolyl]amino]-1-piperidyl]acetyl]pyrrolidine-2-carbonitrile]
0.0034	0.842	2.81	4.53	3280	6.73	N#C[C@@H]1C[C@H](F)CN1C(=O)CN1CCC(Nc2cccc3c(Cl)nccc23)CC1 [Example 351, (2S,4S)-1-[2-[4-[(1-chloro-5-isoquinolyl)amino]-1-piperidyl]acetyl]-4-fluoro-pyrrolidine-2-carbonitrile]

The next lines start with the compound.

Structure (SMILES)	IC50 (Recombinant human FAP) [µM]	IC50 (recombinant human DPP7) [µM]	IC50 (recombinant human DPP8) [µM]	IC50 (recombinant human DPP9) [µM]	IC50 (recombinant human PREP) [nM]	IC50 (DPP4) [µM]
CN(c1ccc2ncccc2c1)C1CCN(CC(=O)N2CCC[C@H]2C#N)CC1 [Example 310, (2S)-1-[2-[4-[methyl(6-quinolyl)amino]-1-piperidyl]acetyl]pyrrolidine-2-carbonitrile]	0.0053	4.33	> 100	66.4	740	> 10
CN(c1ccc2cccnc2c1)C1CCN(CC(=O)N2CCC[C@H]2C#N)CC1 [Example 311, (2S)-1-[2-[4-[methyl(7-quinolyl)amino]-1-piperidyl]acetyl]pyrrolidine-2-carbonitrile]	0.014	2.49	> 100	96.9	4350	> 10
CN(c1cccc2cnccc12)C1CCN(CC(=O)N2CCC[C@H]2C#N)CC1 [Example 313, (2S)-1-[2-[4-[5-isoquinolyl(methyl)amino]-1-piperidyl]acetyl]pyrrolidine-2-carbonitrile]	0.0739	> 100	> 100	13.7	9360	> 10
CN(c1ccc2cnccc2c1)C1CCN(CC(=O)N2CCC[C@H]2C#N)CC1 [Example 314, (2S)-1-(2-(4-(isoquinolin-6-yl(methyl)amino)piperidin-1-yl)acetyl)pyrrolidine-2-carbonitrile]	0.0087	2.47	> 100	34.9	531	> 10
CN(c1cnc2ccccc2c1)C1CCN(CC(=O)N2C[C@@H](F)C[C@H]2C#N)CC1 [Example 316, (2S,4S)-4-fluoro-1-[2-[4-[methyl(3-quinolyl)amino]-1-piperidyl]acetyl]pyrrolidine-2-carbonitrile]	0.0031	1.87	> 100	8.2	500	> 10
CN(c1cc2ccccc2cn1)C1CCN(CC(=O)N2C[C@@H](F)C[C@H]2C#N)CC1 [Example 317, (2S,4S)-4-fluoro-1-[2-[4-[3-isoquinolyl(methyl)amino]-1-piperidyl]acetyl]pyrrolidine-2-carbonitrile]	0.0027	1.85	> 100	7.07	299	> 10
CN(c1ccc2ccncc2c1)C1CCN(CC(=O)N2C[C@@H](F)C[C@H]2C#N)CC1 [Example 319, (2S,4S)-4-fluoro-1-[2-[4-[7-isoquinolyl(methyl)amino]-1-piperidyl]acetyl]pyrrolidine-2-carbonitrile]	0.0018	1.32	3.82	5.04	503	> 10
CN(c1cncc2ccoc12)C1CCN(CC(=O)N2C[C@@H](F)C[C@H]2C#N)CC1 [Example 350, (2S,4S)-4-fluoro-1-[2-[4-[furo[3,2-c]pyridin-7-yl(methyl)amino]-1-piperidyl]acetyl]pyrrolidine-2-carbonitrile]	0.0082	9.08	17.5	27.5	625	7.9
